Patent US20260042735A1, “BENZYLTRYPTAMINE COMPOUNDS” (priority 2021, published 2026)
Like-named read-outs stand apart in the source and are kept apart here.

Assays:
human 5-HT2A receptor [1] = target: T1, human 5-HT2A receptor (Homo sapiens (Human), UniProt P28223); experiment: 5HT2A competitive binding assay (Eurofins Cerep)
Text: The compound is approximately equipotent to psilocybin based on data from the http:/PDSP.unc.edu/databases/pdsp.php.

5HT2B receptor [2] = target: T2, 5HT2B receptor (Homo sapiens, UniProt P41595); experiment: 5HT2B competitive binding assay
T2 sequence (P41595 whole entry): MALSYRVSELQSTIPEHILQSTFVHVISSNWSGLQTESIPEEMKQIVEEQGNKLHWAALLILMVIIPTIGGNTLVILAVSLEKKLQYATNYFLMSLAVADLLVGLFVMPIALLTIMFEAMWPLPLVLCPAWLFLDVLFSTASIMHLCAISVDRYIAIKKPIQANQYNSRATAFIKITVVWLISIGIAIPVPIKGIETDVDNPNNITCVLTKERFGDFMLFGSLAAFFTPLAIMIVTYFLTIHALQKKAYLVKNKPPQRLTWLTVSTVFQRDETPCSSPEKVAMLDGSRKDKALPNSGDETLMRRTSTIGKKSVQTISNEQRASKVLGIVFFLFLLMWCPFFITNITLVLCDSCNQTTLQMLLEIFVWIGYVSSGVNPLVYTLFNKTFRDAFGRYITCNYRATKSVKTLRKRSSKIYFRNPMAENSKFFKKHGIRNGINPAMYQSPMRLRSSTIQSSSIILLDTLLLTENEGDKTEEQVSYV

5HT2C receptor [3] = target: T3, 5HT2C receptor (Homo sapiens, UniProt P28335); experiment: biochemical
T3 sequence (P28335 33-458 limits assumed): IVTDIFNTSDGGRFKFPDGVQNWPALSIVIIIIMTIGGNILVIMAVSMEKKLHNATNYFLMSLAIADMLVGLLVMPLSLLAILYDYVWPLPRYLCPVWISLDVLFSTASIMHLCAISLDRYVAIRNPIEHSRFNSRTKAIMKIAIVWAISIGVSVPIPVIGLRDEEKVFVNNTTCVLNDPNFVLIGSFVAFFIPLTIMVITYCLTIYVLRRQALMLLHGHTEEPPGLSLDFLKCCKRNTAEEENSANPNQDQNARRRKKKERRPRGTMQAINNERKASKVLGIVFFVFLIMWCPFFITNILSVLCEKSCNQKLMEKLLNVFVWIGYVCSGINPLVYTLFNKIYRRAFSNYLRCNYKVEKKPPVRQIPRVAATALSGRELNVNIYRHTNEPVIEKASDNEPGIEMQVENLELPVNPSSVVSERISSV

human recombinant 5-HT1A = human recombinant 5-HT1A (Homo sapiens (Human), UniProt P08908); experiment: 5HT1A competitive binding assay (Eurofins Cerep); conditions: for Ki: [3H]8-OHDPAT 0.5 nM, HEK-293, Cheng Prusoff, read-out: 5HT1A binding constant Ki
5HT2B receptor [4] = target: T2, 5HT2B receptor; experiment: 5HT2B (IP1) functional agonist assay; assay type: cell-based
5HT2B receptor [5] = target: T2, 5HT2B receptor; experiment: 5HT2B functional antagonist assay; assay type: cell-based
Procedure: Quantification of myo-Inositol-1-phosphate was performed using HTRF.

Adrenergic Alpha 2A = Adrenergic Alpha 2A (Homo sapiens (Human), UniProt P08913); experiment: Functional GCPR assay, inhibition, Adrenergic Alpha 2A; assay type: cell-based; conditions: read-out: IC50 (A2A) inhibition in functional GCPR assay
Sequence of Adrenergic Alpha 2A (P08913 whole entry): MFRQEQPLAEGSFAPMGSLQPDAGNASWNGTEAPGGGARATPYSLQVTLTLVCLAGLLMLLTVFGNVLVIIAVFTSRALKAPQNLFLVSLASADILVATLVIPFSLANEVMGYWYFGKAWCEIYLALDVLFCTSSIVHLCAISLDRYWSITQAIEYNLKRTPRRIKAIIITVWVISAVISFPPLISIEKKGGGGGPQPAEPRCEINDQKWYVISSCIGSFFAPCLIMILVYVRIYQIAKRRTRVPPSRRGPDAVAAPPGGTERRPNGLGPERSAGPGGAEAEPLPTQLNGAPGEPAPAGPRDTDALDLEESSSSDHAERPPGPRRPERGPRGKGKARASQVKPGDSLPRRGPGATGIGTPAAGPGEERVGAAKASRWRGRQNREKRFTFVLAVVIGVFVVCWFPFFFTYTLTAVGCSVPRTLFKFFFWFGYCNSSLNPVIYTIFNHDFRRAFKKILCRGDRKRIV

Adrenergic Alpha 1A = Adrenergic Alpha 1A (Homo sapiens (Human), UniProt P35348); experiment: Functional GCPR assay, inhibition, Adrenergic Alpha 1A; assay type: cell-based; conditions: read-out: IC50 (A1A) inhibition in functional GCPR assay
Sequence of Adrenergic Alpha 1A (P35348 whole entry): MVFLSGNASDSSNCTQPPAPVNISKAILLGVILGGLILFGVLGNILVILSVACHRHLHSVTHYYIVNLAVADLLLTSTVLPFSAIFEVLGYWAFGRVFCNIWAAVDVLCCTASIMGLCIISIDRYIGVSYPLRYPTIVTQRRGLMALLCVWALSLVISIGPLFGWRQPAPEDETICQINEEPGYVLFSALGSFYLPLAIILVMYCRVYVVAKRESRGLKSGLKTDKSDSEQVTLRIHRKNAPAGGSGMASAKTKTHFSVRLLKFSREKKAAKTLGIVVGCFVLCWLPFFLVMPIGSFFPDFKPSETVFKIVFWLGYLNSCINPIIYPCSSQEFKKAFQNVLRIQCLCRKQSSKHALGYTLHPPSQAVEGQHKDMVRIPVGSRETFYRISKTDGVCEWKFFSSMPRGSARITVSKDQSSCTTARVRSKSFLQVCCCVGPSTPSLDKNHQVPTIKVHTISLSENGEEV

[6] = Pharmacokinetics after i.v. administration in rats; assay type: in vivo; conditions: plasma, iv; rat, i.v. 1.0 mg/kg
Procedure: (§1) The compound of Example 1 was dispersed in water containing phosphate buffered saline at a rate of 1 mg/ml and then acidified to pH 4 to create a solution. The solution was administered to each of 3 rats (ca. 300 g each) at a rate of 1.0 mg/kg (ca. dose 0.33 ml, […]) via a catheter placed in the jugular vein. Animals were observed over a period of 12 h with counting the cumulative number head-twitch actions over each 10 min up to 2 hours and then for 10 min each at 3, 3.5 and 4 hours. Blood samples (0.25 ml) were collected via the catheter using 1 ml syringes into 0.8 ml K2EDTA tubes at 0.0833, 0.25, 0.5, 0.75, 1, 2, 4, 6 hours after the dose and placed on wet ice until processing. Psychological saline (0.25 ml) was reinjected after each blood draw via the catheter to the animal to flush the catheter and replenish blood volumes. The blood samples collected were centrifuged (3200 g, 5 min, 4 C) within 5 min of collection and the plasma recovered and placed in a cryovial and frozen in liquid nitrogen and stored at −80 C thereafter until analysis. A bioanalytical method was developed to quantify the compound in plasma using a Sciex 6500 Q-trap MSMS equipped with a standard LC system and after calibration with the compound of the example.

rats = experiment: Head-twitch counting during rat i.v. PK experiment; assay type: in vivo; conditions: i.v. 1.0 mg/kg, duration of PK experiment
Procedure: as §1

human 5-HT2A receptor [7] = target: T1, human 5-HT2A receptor; experiment: 5HT2A functional assay (agonism); assay type: cell-based
5HT2C receptor [8] = conditions: binding Ki ratio
patients = conditions: cited from earlier work
5HT2C receptor [9] = target: T3, 5HT2C receptor; conditions: phosphoinositol hydrolysis; read-out: Agonist potency at human 5-HT2C receptor; cited from earlier work
cancer patients = conditions: high-dose, 6-month follow-up; cited from earlier work
[10] = test system: participants with tobacco addiction; conditions: cited from earlier work
[11] = test system: patients with alcohol dependence; conditions: 10 patients with alcohol dependence; cited from earlier work
[12] = 125I-DOI 0.2 nM, CHO cells, Cheng Prusoff, read-out: 5HT2B binding constant Ki
[13] = Table 1, all units nM, read-out: 2A Binding
[14] = Table 1, all units nM, read-out: 2B Binding
[15] = Table 1, all units nM, read-out: 2B IC50 Functional Antagonist
[16] = Table 1, all units nM, read-out: 2B EC50 Functional Agonist
[17] = 2A Binding, Table 1, all units nM

## COc1cccc(CN(C)CCc2c[nH]c3ccccc23)c1 [Example 10]
Human 5-HT2A receptor [1]; 125I-DOI 0.1 nM, HEK-293, Cheng Prusoff, read-out: 5HT2A binding constant Ki
  Ki: 14 nM
5HT2B receptor [2]; [12]
  Ki: 380 nM
5HT2C receptor [3]
  Ki: 42 nM
Human recombinant 5-HT1A
  Ki: 510 nM
5HT2B receptor [4]; Example 10, read-out: 5HT2B functional agonist mode IC50
  IC50: 1050 nM
5HT2B receptor [4]; up to 30 uM
  5HT2B functional agonist mode efficacy: < 20%

## COc1cc(OC)c(CN(CCc2c[nH]c3ccc(OC)cc23)C(C)C)c(OC)c1 [B, reference compound]
Human 5-HT2A receptor [1]; [13]
  Ki: 4600 nM
5HT2B receptor [2]; [14]
  Ki: 4930 nM
5HT2B receptor [5]; [15]
  IC50: > 10000 nM

## C=CCN(CCc1c[nH]c2ccccc12)Cc1cccc(OC)c1 [Example 29, N-(2-(1H-indol-3-yl)ethyl)-N-(3-methoxybenzyl)prop-2-en-1-amine]
Human 5-HT2A receptor [1]; [13]
  Ki: 28 nM
5HT2B receptor [2]; [14]
  Ki: 21 nM

## CN(CCc1c[nH]c2ccccc12)Cc1cccc(Br)c1 [Example 23, N-(3-bromobenzyl)-2-(1H-indol-3-yl)-N-methylethan-1-amine]
Human 5-HT2A receptor [1]; [13]
  Ki: 11 nM
5HT2B receptor [2]; [14]
  Ki: 22 nM
5HT2B receptor [5]; [15]
  IC50: 1620 nM

## C/C=C\CN(CCc1c[nH]c2ccccc12)Cc1cccc(OC)c1 [Example 19, (Z)—N-(2-(1H-indol-3-yl)ethyl)-N-(3-methoxybenzyl)but-2-en-1-amine]
Human 5-HT2A receptor [1]; [13]
  Ki: 31 nM
5HT2B receptor [2]; [14]
  Ki: 44 nM
5HT2B receptor [4]; [16]
  EC50: > 10000 nM
5HT2B receptor [5]; [15]
  IC50: 3380 nM

## CCN(CCc1c[nH]c2ccc(OC)cc12)Cc1ccccc1OC [Example 11, N-ethyl-2-(5-methoxy-1H-indol-3-yl)-N-(2-methoxybenzyl)ethan-1-amine]
Human 5-HT2A receptor [1]; [17]
  Ki: 170 nM
5HT2B receptor [2]
  Ki: 173 nM
5HT2B receptor [4]
  EC50: > 10000 nM

## CN(CCc1c[nH]c2ccccc12)Cc1ccccc1 [Example 17, N-(2-(1H-indol-3-yl)ethyl)-N-(benzyl)methan-1-amine]
Human 5-HT2A receptor [1]; [13]
  Ki: 60 nM
5HT2B receptor [2]; [14]
  Ki: 45 nM
5HT2B receptor [5]; [15]
  IC50: > 10000 nM

## COc1ccc2[nH]cc(CCN(C)Cc3c(OC)cccc3OC)c2c1 [A, reference compound]
Human 5-HT2A receptor [1]; [17]
  Ki: 1600 nM
5HT2B receptor [2]
  Ki: 402 nM
5HT2B receptor [5]
  IC50: > 10000 nM

## C#Cc1cccc(CN(C)CCc2c[nH]c3ccccc23)c1 [Example 25, 2-(1H-indol-3-yl)-N-(3-ethynylbenzyl)-N-methylethan-1-amine]
Human 5-HT2A receptor [1]; [13]
  Ki: 6 nM
5HT2B receptor [2]; [14]
  Ki: 13 nM
5HT2B receptor [4]; [16]
  EC50: 163 nM
5HT2B receptor [5]; [15]
  IC50: 2560 nM

## COc1ccc2[nH]cc(CCN(C)Cc3cc(OC)c(OC)c(OC)c3)c2c1 [C, reference compound]
Human 5-HT2A receptor [1]; [17]
  Ki: 340 nM
5HT2B receptor [2]
  Ki: 76 nM
5HT2B receptor [5]
  IC50: 2050 nM

## COc1ccc2[nH]cc(CCN(C)Cc3ccccc3OC)c2c1 [Example 1]
Adrenergic Alpha 2A
  IC50: 1700 nM
Adrenergic Alpha 1A
  IC50: 1800 nM
[6]
  half-life: 1.1 h
rats
  Head twitch activity: no significant head twitch activity
Human 5-HT2A receptor [7]; HEK-293
  EC50: 520 nM
Human 5-HT2A receptor [7]; at the highest concentrations, read-out: 5HT2A maximum efficacy
  Emax: 80%
5HT2B receptor [2]; [12]
  Ki: 180 nM
5HT2C receptor [3]
  Ki: 680 nM
Human recombinant 5-HT1A
  Ki: 540 nM
Human recombinant 5-HT1A; binding Ki ratio
  Selectivity for 5HT2A over 5HT1A (Ki): about 5 fold
5HT2B receptor [4]; CHO cells, HTRF, serotonin 1 uM control
  5HT2B functional agonist EC50 (IP1): could not be determined for lack of activity
5HT2B receptor [5]; CHO cells, background serotonin 10 uM, read-out: 5HT2B functional antagonist IC50
  IC50: < 10000 nM
5HT2B receptor [5]; relative to serotonin
  5HT2B functional mode (antagonist): full antagonist
5HT2C receptor [8]
  Selectivity for 5HT2A over 5HT2C (Ki): about 6 fold

## C[C@H]1CNCCc2ccc(Cl)cc21 [Locaserin]
patients
  Risk of cardiac valvulopathy: no increased risk of cardiac valvulopathy

## C=CCN(CCc1c[nH]c2ccc(OC)cc12)Cc1ccccc1OC [Example 13, N-(2-(5-methoxy-1H-indol-3-yl)ethyl)-N-(2-methoxybenzyl)prop-2-en-1-amine]
Human 5-HT2A receptor [1]; [13]
  Ki: 76 nM
5HT2B receptor [2]; [14]
  Ki: 73 nM
5HT2B receptor [4]; [16]
  EC50: > 10000 nM
5HT2B receptor [5]; [15]
  IC50: > 10000 nM

## COc1cccc(CN(C)CCc2c[nH]c3ccccc23)c1OC [Example 15, N-(2,3-dimethoxybenzyl)-2-(H-indol-3-yl)-N-methylethan-1-amine]
Human 5-HT2A receptor [1]; [17]
  Ki: 274 nM
5HT2B receptor [2]
  Ki: 48 nM
5HT2B receptor [5]
  IC50: 1370 nM

## CN(CCc1c[nH]c2ccccc12)Cc1cccc(CO)c1 [Example 24, N-(2-(1H-indol-3-yl)ethyl)-N-(3-hydroxymethylbenzyl)methan-1-amine]
Human 5-HT2A receptor [1]; [13]
  Ki: 59 nM
5HT2B receptor [2]; [14]
  Ki: 50 nM
5HT2B receptor [5]; [15]
  IC50: 6990 nM

## CCCCn1cc(CCN(C)C)c2c(O)cccc21 [Compound 6]
5HT2C receptor [9]
  EC50: ~600 nM

## CN(CCc1c[nH]c2ccccc12)Cc1cccc(O)c1 [Example 22, 3-(((2-(1H-indol-3-yl)ethyl)(methyl)amino)methyl)phenol]
Human 5-HT2A receptor [1]; [17]
  Ki: 35 nM
5HT2B receptor [2]
  Ki: 31 nM
5HT2B receptor [5]
  IC50: > 10000 nM

## COc1ccccc1CN(C)CCc1c[nH]c2ccccc12 [Example 28, 2-(1H-indol-3-yl)-N-(2-methoxybenzyl)-N-methylethan-1-amine]
Human 5-HT2A receptor [1]; [17]
  Ki: 130 nM
5HT2B receptor [2]
  Ki: 253 nM

## COc1ccc2[nH]cc(CCN(Cc3ccccc3OC)C(C)C)c2c1 [Example 12, N-(2-(5-methoxy-1H-indol-3-yl)ethyl)-N-(2-methoxybenzyl)propan-2-amine]
Human 5-HT2A receptor [1]; [13]
  Ki: 277 nM
5HT2B receptor [2]; [14]
  Ki: 341 nM
5HT2B receptor [4]; [16]
  EC50: > 10000 nM

## CN(CCc1c[nH]c2ccccc12)Cc1cccc2c1OCO2 [Example 26]
Human 5-HT2A receptor [1]; [13]
  Ki: 73 nM
5HT2B receptor [2]; [14]
  Ki: 60 nM
5HT2B receptor [5]; [15]
  IC50: 1090 nM

## COc1cccc(CN(CCc2c[nH]c3ccccc23)C(C)C)c1OC [Example 16, N-(2-(1H-indol-3-yl)ethyl)-N-(2,3-dimethoxybenzyl)prop-2-an-1-amine]
Human 5-HT2A receptor [1]; [13]
  Ki: 2630 nM
5HT2B receptor [2]; [14]
  Ki: 313 nM
5HT2B receptor [4]; [16]
  EC50: > 10000 nM
5HT2B receptor [5]; [15]
  IC50: > 10000 nM

## CCc1cccc(CN(C)CCc2c[nH]c3ccccc23)c1 [Example 21, 2-(1H-indol-3-yl)-N-(3-ethylbenzyl)-N-methylethan-1-amine]
Human 5-HT2A receptor [1]; [13]
  Ki: 5 nM
5HT2B receptor [5]; [15]
  IC50: 687 nM

## COc1ccc(CN(C)CCc2c[nH]c3ccccc23)cc1 [Example 14, 2-(1H-indol-3-yl)-N-(4-methoxybenzyl)-N-methylethan-1-amine]
Human 5-HT2A receptor [1]; [13]
  Ki: 280 nM
5HT2B receptor [2]; [14]
  Ki: 69 nM
5HT2B receptor [5]; [15]
  IC50: 1670 nM

## COc1cccc(CN(C)CCc2c[nH]c3ccc(OC)cc23)c1 [Example 27, 2-(5-methoxy-1H-indol-3-yl)-N-(3-methoxybenzyl)-N-methylethan-1-amine]
Human 5-HT2A receptor [1]; [17]
  Ki: 16 nM
5HT2B receptor [2]
  Ki: 16 nM

## C=C(C)CN(CCc1c[nH]c2ccccc12)Cc1cccc(OC)c1 [Example 20, N-(2-(1H-indol-3-yl)ethyl)-N-(3-methoxybenzyl)2-methylprop-2-en-1-amine]
Human 5-HT2A receptor [1]; [13]
  Ki: 135 nM

## CN(C)CCc1c[nH]c2cccc(OP(=O)(O)O)c12 [psilocybin]
Cancer patients
  Participants continuing to show clinically significant decreases in depressed mood and anxiety: about 80%
[10]; 2.5 years after the target quit date
  Participants abstinent: 75%
[10]; 6-month follow up
  Participants with biologically verified 7-day point-prevalence abstinence: eighty
[10]; 12-month follow-up
  Participants biologically verified as abstinent: 67%
[11]
  Alcohol use post administration: significant decrease in alcohol use
